According to BindingDB's records for doi:10.1016/j.bmc.2007.03.073 (University of Upper Alsace, 2007):

Test: Inhibition of yeast alpha-D-glucosidase

| Ki [µM] | IC50 [µM] | Structure (SMILES) |
| --- | --- | --- |
| 6.3 | – | OC[C@H]1NC(O)[C@H](O)[C@@H](O)[C@@H]1O (stereo partly drawn) [NOJIRIMYCIN] |
| – | 150 | O=C1CNC[C@@H]1O |
| 2 | – | O[C@H]1[C@H](O)CN[C@H]1O |
